Source: article PMC11478287, “Design and Synthesis of Pyridyl and 2-Hydroxyphenyl Chalcones with Antitubercular Activity” (Molecules, 2024)
pIC50: −log10 of the molar value. Entries after “also recorded” stand apart in the source; their conditions may differ. Like-named read-outs stand apart in the source and are kept apart here.

What was measured:
[1] = MDA-468 MTT cytotoxicity screening; type: cell-based; conditions: human, MDA-MB-468 (MDA468) breast cancer cells, quadruplicate
Protocol: (§1) The cytotoxicity of compounds towards eukaryotic cells was determined using human liver cells (HepG2), non-tumorigenic human mammary epithelial cells (MCF-10A), and breast cancer cells (MDA-MB-468).
(§2) Cells were purchased from the American Type Culture Collection (Manassas, VA, USA). MDA-468 cells were grown in RPMI-1640 medium with 10% (v/v) heat-inactivated foetal calf serum and L-glutamine (2 mM) without phenol red. MCF-10A cells were grown in Dulbecco’s modified Eagle’s medium/ Ham’s F-12 medium (1:1) with 5% (v/v) heat-inactivated foetal calf serum, epidermal growth factor (20 ng/mL), insulin (10 µg/mL), and hydrocortisone (500 ng/mL). Cells were maintained at 37 °C, 5% CO2 / 95% air with 100% humidity and passaged every 2–3 days using trypsin EDTA solution (0.25% w/v). Adhered cells at sub confluence were harvested for experimental use. The medium was aspirated and discarded, and trypsin-EDTA solution (1% w/v, 1 mL) was added to the cells. After 30 s this was aspirated and immediately replaced by a further 1 mL of trypsin-EDTA solution. The cells were incubated at 37 °C for approximately 5 min or until the cells were visibly non-adherent. The resultant cell suspension was placed in a 25 mL sterile universal container with 10 mL of fresh medium followed by centrifugation (3 min, 3000 rpm, and 4 °C). Old medium was aspirated and replaced with 10 mL of fresh medium. To determine the density of cells in suspension, an aliquot (100 µL) was added to a trypan-blue solution (0.4% w/v, 100 µL), and the number of viable cells were determined using a Neubauer haemocytometer. The cell suspension was diluted with relevant medium to give a cell count of 2 × 10^3 cells per mL. Aliquots (100 µL) were dispensed into sterile 96-well microtitre flat-bottomed plates. For the MDA-468 and MCF-10A cell lines the plates were incubated at 37 °C, 5% CO2/95% air with 100% humidity for 24 h prior to the addition of test compounds. Test compounds were added within 30 min into the wells from a 100 mM stock solution in DMSO and serially diluted to give final concentrations of […], 0.01, 0.003, 0.001, and 0.0003 µM. […] The cells were allowed to grow for 96 h at 5%, CO2, 37 °C to give 80–90% confluence in the control wells, after which 50 µL of MTT (3-[4,5 dimethylthiazol-2-yl]-2,5-diphenyl tetrazolium bromide, 2 mg mL^−1) in sterile phosphate buffer was added to each well and the plates were further incubated for 2 h. All medium was aspirated, and the formazan precipitate generated by viable cells was solubilised by 150 µL of DMSO. All the plates were vortexed, and the absorbance at 540 nm was determined using a Molecular Devices SpectraMax M5 plate reader. Results were expressed as a percentage of the control value versus the negative logarithm of the molar drug concentration range using Graph Pad Prism. Relative toxicities of each compound within each cell line were expressed as 50% of growth inhibition (IC50). All determinations were carried out in quadruplicate.

[2] = test system: Mycobacterium tuberculosis H37Rv; test: microbe, parasite or virus in culture; type: cell-based; conditions: for IC90: read-out: Anti-tubercular activity M. tuberculosis (H37Rv) IC90; for pIC50: SD in brackets, read-out: Anti-tubercular activity M. tuberculosis (H37Rv) IC50 (SD)
[3] = MCF-10A MTT cytotoxicity screening; type: cell-based; conditions: human, MCF-10A normal breast (mammary epithelial) cells, quadruplicate, read-out: Cytotoxicity MCF10A normal breast cells IC50
Protocol: as §1, §2

[4] = HepG2 cytotoxicity screening (CellTiter-Glo); type: cell-based; conditions: human, HepG2 cells; 50% decrease in viable cells after 72 h
Protocol: as §1
HepG2 cells were incubated with compounds for 72 h in medium containing either glucose or galactose, and cell viability was measured. The IC50 was determined as the concentration of compound causing a 50% decrease in viable cells after 72 h. Compounds were prepared as 10-point three-fold serial dilutions in DMSO. The highest concentration of compound tested was 100 µM where compounds were soluble in DMSO at 10 mM. […] HepG2 cells were cultured in complete DMEM (recipe: DMEM medium, 1X penicillin-streptomycin solution, 2 mM Corning Glutogro supplement, 1 mM sodium pyruvate, 10% v/v Fetal Bovine Serum), inoculated into 384-well assay plates and incubated for 24 h at 37 °C, 5% CO2. Compounds were added and cells were cultured for a further 72 h. The final DMSO concentration was 1%. Cell viability was determined using the CellTiter-Glo® Luminescent Cell Viability Assay (Promega, Madison, WI, USA) and measuring relative luminescent units (RLU). The dose-response curve was fitted using the Levenberg–Marquardt algorithm. The IC50 was defined as the compound concentration that produced a 50% decrease in viable cells. Each run included staurosporine as a control.

[5] = test system: MDA468 breast cancer cells; set-up: method as in PMID 29332599; conditions: previously reported value ref 12; read-out: Cytotoxicity MDA468 breast cancer cells IC50; cited from earlier work
[6] = Mycobacterium tuberculosis, H37RV, 120 h, 5-day incubation, […]

SMILES	IC50 at 96 h [1]	IC90 [2, 6]	pIC50 [2, 6]	IC50 at 96 h [3]	IC50 at 72 h [4]	further results
O=C(/C=C/c1cccnc1)c1ccc2ccc3cccc4ccc1c2c34 [Compound 20, (E)-1-(pyren-1-yl)-3-(pyridin-3-yl)prop-2-en-1-one]	4 µM	22 µM	5.06	2 µM	1.8 µM	
COc1ccc(/C=C\c2cc(OC)c(OC)c(OC)c2)cc1O [Combretastatin A-4, reference compound]	0.003 µM			0.0016 µM		
COc1cc(C(=O)/C=C/c2ccc3c(c2)OCO3)cc(OC)c1OC [Compound 2]				2.3 µM		pIC50 [5]: 8.22; Anti-tubercular activity (in words) [2]: did not exhibit anti-tubercular activity; also recorded: no antitubercular activity; IC90 ([2]; Mycobacterium tuberculosis, H37RV, 120 h): > 100 µM
COc1cc(C(=O)/C=C/c2cccnc2)cc(OC)c1OC [Compound 16, (E)-3-(pyridin-3-yl)-1-(3,4,5-trimethoxyphenyl)prop-2-en-1-one]	0.7 µM	59 µM	4.72	1.5 µM	2 µM	
O=C(/C=C/c1ccc(Cl)cc1)c1ccccc1O [Compound 23, (E)-3-(4-chlorophenyl)-1-(2-hydroxyphenyl)prop-2-en-1-one]		97 to 100 µM			25 µM	IC90 ([2]; 5-day incubation, […]): > 100 µM
O=C(/C=C/c1cccnc1)c1ccccc1O [Compound 18, (E)-1-(2-hydroxyphenyl)-3-(pyridin-3-yl)prop-2-en-1-one]	8 µM	> 100 µM	< 4.00	16 µM	22 µM	Anti-tubercular activity (in words) ([2]; M. tuberculosis H37Rv): abolished
O=C(/C=C/c1cccnc1)c1ccc(O)cc1 [Compound 17]	30 µM	> 100 µM	< 4.00	> 100 µM	> 100 µM	Anti-tubercular activity (in words) ([2]; M. tuberculosis H37Rv): abolished
O=C(/C=C/c1cccnc1)c1c2ccccc2cc2ccccc12 [Compound 19]	0.3 µM	48 µM	5.00	4.4 µM	2.7 µM	
O=C(/C=C/c1cccnc1)c1ccc(Cl)cc1 [Compound 15, (E)-1-(4-chlorophenyl)-3-(pyridin-3-yl)prop-2-en-1-one]		77 µM	4.62		11 µM	
O=C(/C=C/c1ccc(Br)cc1)c1ccccc1O [Compound 24, (E)-3-(4-bromophenyl)-1-(2-hydroxyphenyl)prop-2-en-1-one]		97 µM	< 4.00		14 µM	
Oc1ccccc1C1=NNC(c2ccc(Cl)cc2)C1 (stereo not drawn) [Compound 30, 2-(5-(4-chlorophenyl)-4,5-dihydro-1H-pyrazol-3-yl)phenol]			4.64		19.5 µM	
COc1cccc(C(=O)/C=C/c2ccc(Br)cc2)c1 [Compound 25, (E)-3-(4-bromophenyl)-1-(3-methoxyphenyl)prop-2-en-1-one]		28 µM	4.66		14 µM	
COc1cccc(C(=O)/C=C/c2ccc(Cl)cc2)c1 [Compound 26, (E)-3-(4-chlorophenyl)-1-(3-methoxyphenyl)prop-2-en-1-one]		≥ 28 µM	4.70		13 µM	IC90 ([2]; 5-day incubation, […]): 28 µM
O=C(/C=C/c1cccnc1)c1ccc(Cl)c(Cl)c1 [Compound 14, (E)-1-(3,4-dichlorophenyl)-3-(pyridin-3-yl)prop-2-en-1-one]		28 µM	4.92		2.5 µM	
O=C(/C=C/c1cn(-c2ccccc2)nc1-c1ccccc1)c1ccccc1O [Compound 27, (E)-3-(1,3-diphenyl-1H-pyrazol-4-yl)-1-(2-hydroxyphenyl)prop-2-en-1-one]		97 to 100 µM	< 4.00		74 µM	IC90 ([2]; 5-day incubation, […]): > 100 µM
COc1ccccc1C(=O)/C=C/c1ccc(Br)cc1 [Compound 22]		59 µM	4.35		13 µM	
O=C(/C=C/c1cccnc1)c1ccc(-c2ccccc2)cc1 [Compound 21, (E)-1-([1,1′-biphenyl]-4-yl)-3-(pyridin-3-yl)prop-2-en-1-one]	3.5 µM	8.9 µM	5.41	7 µM	4.5 µM	
Oc1ccccc1C1=NNC(c2cn(-c3ccccc3)nc2-c2ccccc2)C1 (stereo not drawn) [Compound 29, 2-(1′,3′-diphenyl-3,4-dihydro-1′H,2H-[3,4′-bipyrazol]-5-yl)phenol]		> 25 µM	4.96		46.5 µM	Fold more active than parent compound 27 (IC50 H37Rv) ([2]; 29 versus 27): 10 fold
Oc1ccccc1C1=NNC(c2ccc(Br)cc2)C1 (stereo not drawn) [Compound 31, 2-(5-(4-bromophenyl)-4,5-dihydro-1H-pyrazol-3-yl)phenol]		34 µM	4.64		24.5 µM	
CO[C@H]1/C=C/O[C@@]2(C)Oc3c(C)c(O)c4c(O)c(c(/C=N/N5CCN(C)CC5)c(O)c4c3C2=O)NC(=O)/C(C)=C\C=C\[C@H](C)[C@H](O)[C@@H](C)[C@@H](O)[C@@H](C)[C@H](OC(C)=O)[C@@H]1C [Rifampicin, reference compound]		0.0087 µM	8.36			
O=C(/C=C/c1cccc(Br)c1)c1cccnc1 [Compound 28, (E)-3-(3-bromophenyl)-1-(pyridin-3-yl)prop-2-en-1-one]	0.7 µM	65 µM		5.2 µM		
